From paper PMC4538536, “In Silico-Based High-Throughput Screen for Discovery of Novel Combinations for Tuberculosis Treatment” (Antimicrobial Agents and Chemotherapy, 2015)
Converted amounts (≈) assume the structure as drawn. Like-named read-outs stand apart in the source and are kept apart here.

What was measured:
M. tuberculosis H37Rv [1] = experiment: MIC determination, resazurin-based microplate assay; assay type: cell-based, Mycobacterium tuberculosis; conditions: Mycobacterium tuberculosis, single drug
M. tuberculosis H37Rv [2] = experiment: In vitro bactericidal-effect analysis (CFU enumeration of checkerboard wells); assay type: cell-based, Mycobacterium tuberculosis; conditions: single drug at its MIC (FIC of 1); positive = reduction in CFU
Method in brief: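 Wells staying blue in REMA checkerboards with ΣFIC <0.7 (pairs) or <1.5 (triplets) plated on Middlebrook 7H10, 37°C for 21 to 28 days; CFU reduction computed versus untreated start-of-testing counts and versus each drug alone.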

[3] = In vivo pharmacokinetics in infected mice (plasma, LC-MS/MS); parameters: species or system BALB/c mice; conditions: mouse; for AUC(0-t) / Cmax: po, steady state, infected mice
[4] = in vivo, 25 mg/kg; cited from earlier work
[5] = BALB/c, plasma, 25 mg/kg, Group 5 triplet EMB 100/BDQ 25/SQ109 25 mg/kg oral, read-out: AUC0-24 in Triplet
[6] = BALB/c, plasma, 25 mg/kg, Group 5 triplet EMB 100/BDQ 25/SQ109 25 mg/kg oral, read-out: Cmax in Triplet
[7] = BALB/c, plasma, 50 mg/kg, Group 2 triplet SQ109 25/BDQ 25/PA824 50 mg/kg oral, read-out: AUC0-24 in Triplet
[8] = BALB/c, plasma, 50 mg/kg, Group 2 triplet SQ109 25/BDQ 25/PA824 50 mg/kg oral, read-out: Cmax in Triplet
[9] = BALB/c, plasma, 150 mg/kg, Group 2 quartet SQ109 25/BDQ 25/PA824 50/PZA 150 mg/kg oral, read-out: AUC0-24 in Quartet
[10] = BALB/c, plasma, 150 mg/kg, Group 2 quartet SQ109 25/BDQ 25/PA824 50/PZA 150 mg/kg oral, read-out: Cmax in Quartet
[11] = BALB/c, plasma, 150 mg/kg, Group 5 quartet EMB 100/BDQ 25/SQ109 25/PZA 150 mg/kg oral, read-out: AUC0-24 in Quartet
[12] = BALB/c, plasma, 150 mg/kg, Group 5 quartet EMB 100/BDQ 25/SQ109 25/PZA 150 mg/kg oral, read-out: Cmax in Quartet

In the case of `COc1nc2ccc(Br)cc2cc1[C@@H](c1ccccc1)[C@@](O)(CCN(C)C)c1cccc2ccccc12` [Bedaquiline], the MIC (M. tuberculosis H37Rv [1]) is reported as 0.35 µM (≈ 0.194 µg/mL), the “ΔLog10 CFU/ml at the MIC” value (M. tuberculosis H37Rv [2]) is reported as 0.02 Log10 CFU/ml and the AUC(0-t) [3, 5] is reported as 22200 ± 1600 ng·h/mL. It also gave a Cmax [3, 6] of 2000 ± 600 ng/mL, an AUC(0-t) ([3]; BALB/c, plasma, 50 mg/kg, Group 1 triplet CFZ 20/BDQ 25/PA824 50 mg/kg oral, read-out: AUC0-24 in Triplet) of 21000 ± 1700 ng·h/mL and a Cmax ([3]; BALB/c, plasma, 50 mg/kg, Group 1 triplet CFZ 20/BDQ 25/PA824 50 mg/kg oral, read-out: Cmax in Triplet) of 1600 ± 100 ng/mL. For the same compound, the AUC(0-t) [3, 7] was 34900 ± 5800 ng·h/mL, the Cmax [3, 8] was 3600 ± 2800 ng/mL and the AUC(0-t) ([3]; BALB/c, plasma, 100 mg/kg, Group 8 triplet PA824 50/BDQ 25/EMB 100 mg/kg oral, read-out: AUC0-24 in Triplet) was 43300 ± 6000 ng·h/mL. The Cmax ([3]; BALB/c, plasma, 100 mg/kg, Group 8 triplet PA824 50/BDQ 25/EMB 100 mg/kg oral, read-out: Cmax in Triplet) was 3100 ± 200 ng/mL, the AUC(0-t) ([3]; BALB/c, plasma, 150 mg/kg, Group 1 quartet CFZ 20/BDQ 25/PA824 50/PZA 150 mg/kg oral, read-out: AUC0-24 in Quartet) was 30900 ± 5200 ng·h/mL and the Cmax ([3]; BALB/c, plasma, 150 mg/kg, Group 1 quartet CFZ 20/BDQ 25/PA824 50/PZA 150 mg/kg oral, read-out: Cmax in Quartet) was 2600 ± 500 ng/mL. For the same compound, the AUC(0-t) [3, 9] was 31400 ± 5400 ng·h/mL, the Cmax [3, 10] was 2300 ± 500 ng/mL and the AUC(0-t) [3, 11] was 21500 ± 1600 ng·h/mL. For the same compound, the Cmax [3, 12] was 1700 ± 700 ng/mL, the AUC(0-t) ([3]; BALB/c, plasma, 150 mg/kg, Group 7 quartet PA824 50/BDQ 25/MXF 400/PZA 150 mg/kg oral, read-out: AUC0-24 in Quartet) was 24600 ± 2900 ng·h/mL and the Cmax ([3]; BALB/c, plasma, 150 mg/kg, Group 7 quartet PA824 50/BDQ 25/MXF 400/PZA 150 mg/kg oral, read-out: Cmax in Quartet) was 4500 ± 1300 ng/mL. For the same compound, the AUC(0-t) ([3]; BALB/c, plasma, 150 mg/kg, Group 8 quartet PA824 50/BDQ 25/EMB 100/PZA 150 mg/kg oral, read-out: AUC0-24 in Quartet) was 50700 ± 8900 ng·h/mL, the Cmax ([3]; BALB/c, plasma, 150 mg/kg, Group 8 quartet PA824 50/BDQ 25/EMB 100/PZA 150 mg/kg oral, read-out: Cmax in Quartet) was 4200 ± 1500 ng/mL and the AUC(0-t) ([3]; BALB/c, plasma, 400 mg/kg, Group 7 triplet PA824 50/BDQ 25/MXF 400 mg/kg oral, read-out: AUC0-24 in Triplet) was 63200 ± 16700 ng·h/mL. The Cmax ([3]; BALB/c, plasma, 400 mg/kg, Group 7 triplet PA824 50/BDQ 25/MXF 400 mg/kg oral, read-out: Cmax in Triplet) was 3600 ± 100 ng/mL.
For `CC(C)=CCC/C(C)=C/CNCCNC1C2CC3CC(C2)CC1C3` (centres unmarked) [SQ109], the MIC (M. tuberculosis H37Rv [1]) was 1.18 µM (≈ 0.39 µg/mL), the “ΔLog10 CFU/ml at the MIC” value (M. tuberculosis H37Rv [2]) was 1.40 Log10 CFU/ml and the AUC ([3]; BALB/c, plasma, oral, SQ109 25 mg/kg, EMB 100 mg/kg, in 3- and 4-drug combinations, read-out: observed AUC in combinations) was 2000 to 8900 ng·h/mL. It also gave an AUC(0-t) [3, 5] of 7800 ± 4900 ng·h/mL, a Cmax [3, 6] of 5500 ± 5100 ng/mL and an AUC(0-t) ([3]; BALB/c, plasma, 25 mg/kg, Group 6 triplet BTZ043 37.5/THI 800/SQ109 25 mg/kg oral, read-out: AUC0-24 in Triplet) of 3100 ± 300 ng·h/mL. The Cmax ([3]; BALB/c, plasma, 25 mg/kg, Group 6 triplet BTZ043 37.5/THI 800/SQ109 25 mg/kg oral, read-out: Cmax in Triplet) was 900 ± 500 ng/mL, the AUC(0-t) [3, 7] was 8900 ± 3700 ng·h/mL and the Cmax [3, 8] was 5200 ± 2700 ng/mL. The AUC(0-t) ([3]; BALB/c, plasma, 130 mg/kg, Group 9 triplet EMB 100/SQ109 25/LZD 130 mg/kg oral, read-out: AUC0-24 in Triplet) was 4700 ± 1400 ng·h/mL, the Cmax ([3]; BALB/c, plasma, 130 mg/kg, Group 9 triplet EMB 100/SQ109 25/LZD 130 mg/kg oral, read-out: Cmax in Triplet) was 900 ± 400 ng/mL and the AUC(0-t) [3, 9] was 5100 ± 800 ng·h/mL. The Cmax [3, 10] was 3500 ± 1400 ng/mL, the AUC(0-t) ([3]; BALB/c, plasma, 150 mg/kg, Group 3 quartet BTZ043 37.5/SQ109 25/MXF 200/PZA 150 mg/kg oral, read-out: AUC0-24 in Quartet) was 1800 ± 400 ng·h/mL and the Cmax ([3]; BALB/c, plasma, 150 mg/kg, Group 3 quartet BTZ043 37.5/SQ109 25/MXF 200/PZA 150 mg/kg oral, read-out: Cmax in Quartet) was 500 ± 200 ng/mL. For the same compound, the AUC(0-t) [3, 11] was 4900 ± 100 ng·h/mL, the Cmax [3, 12] was 2700 ± 500 ng/mL and the AUC(0-t) ([3]; BALB/c, plasma, 150 mg/kg, Group 6 quartet BTZ043 37.5/THI 800/SQ109 25/PZA 150 mg/kg oral, read-out: AUC0-24 in Quartet) was 4900 ± 2200 ng·h/mL. It also gave a Cmax ([3]; BALB/c, plasma, 150 mg/kg, Group 6 quartet BTZ043 37.5/THI 800/SQ109 25/PZA 150 mg/kg oral, read-out: Cmax in Quartet) of 3100 ± 2800 ng/mL, an AUC(0-t) ([3]; BALB/c, plasma, 150 mg/kg, Group 9 quartet EMB 100/SQ109 25/LZD 130/PZA 150 mg/kg oral, read-out: AUC0-24 in Quartet) of 7600 ± 3600 ng·h/mL and a Cmax ([3]; BALB/c, plasma, 150 mg/kg, Group 9 quartet EMB 100/SQ109 25/LZD 130/PZA 150 mg/kg oral, read-out: Cmax in Quartet) of 3500 ± 3100 ng/mL. The AUC(0-t) ([3]; BALB/c, plasma, 200 mg/kg, Group 3 triplet BTZ043 37.5/SQ109 25/MXF 200 mg/kg oral, read-out: AUC0-24 in Triplet) was 2100 ± 800 ng·h/mL, the Cmax ([3]; BALB/c, plasma, 200 mg/kg, Group 3 triplet BTZ043 37.5/SQ109 25/MXF 200 mg/kg oral, read-out: Cmax in Triplet) was 700 ± 500 ng/mL and the “plasma exposure in combination compared with individual (reported) exposure” value ([3]; in vivo) was “higher”. The “reported AUC” value [4] was 0.25 µg·h/mL.
